Assay results as given in ChEMBL document CHEMBL1141942, “Novel 7-methoxy-6-oxazol-5-yl-2,3-dihydro-1H-quinazolin-4-ones as IMPDH inhibitors” (Bioorg Med Chem Lett, 2005).
Values after ≈ are worked out from the molar mass of the structure shown.

How the values were obtained:
[1] = biological target: T1, Inosine-5'-monophosphate dehydrogenase 2 (Homo sapiens, UniProt P12268); assay: Inhibitory activity against IMPDH II
PBMC = assay: Antiproliferative activity in PMBC; format: functional, cell-based; conditions: Homo sapiens
[2] = Intrinsic clearance in human liver microsomes; format: ADME, Microsome
[3] = Solubility at pH 6.5; format: physicochemical; conditions: buffer
[4] = biological target: T1, Inosine-5'-monophosphate dehydrogenase 2; conditions: 10 uM
Description: Inhibitory activity against IMPDH II at 10 uM

Row | SMILES | IC50 [1] [nM] | IC50 (PBMC) [nM] | microsomal CLint [2] [µL/min/mg] | solubility [3] [µg/mL] | inhibition [4] [%]
1 | COc1cc2c(cc1-c1cnco1)C(=O)N(C)C(C)(/C=C/c1ccccc1)N2 (stereo unspecified) | 49 | 3000 |  |  | 
2 | CCOC(=O)N1CCC2(C1)Nc1cc(OC)c(-c3cnco3)cc1C(=O)N2C (stereo unspecified) | 80 | 1200 | 24 |  | 
3 | COc1cc2c(cc1-c1cnco1)C(=O)N(CCc1ccncc1)C(C)(C)N2 | 300 | 37000 |  |  | 
4 | COc1cc2c(cc1-c1cnco1)C(=O)N(C)C1(CCN(C(=O)C(C)(C)C)C1)N2 (stereo unspecified) | 94 | 540 | 46 |  | 
5 | COc1cc2c(cc1-c1cnco1)C(=O)N(C)C1(CCN(C(=O)N(C)c3ccccc3)C1)N2 (stereo unspecified) | 64 | 860 | 144 |  | 
6 | COc1cc2c(cc1-c1cnco1)C(=O)N(C)C1(CCCC1)N2 | 328 | 8500 |  |  | 
7 | COc1cc2c(cc1-c1cnco1)C(=O)N(C)C1(CCN(C(=O)OC(C)(C)C)C1)N2 (stereo unspecified) | 104 | 970 | 42 | 101 (≈ 244 µM) | 
8 | COc1cc2c(cc1-c1cnco1)C(=O)N(C)C1(Cc3ccsc3C1)N2 (stereo unspecified) | 96 | 1900 |  |  | 
9 | COC(=O)[C@H]1C[C@]2(CN1C(=O)OC(C)(C)C)Nc1cc(OC)c(-c3cnco3)cc1C(=O)N2C | 35 | 1500 | 18 |  | 
10 | COC(=O)[C@@H]1C[C@@]2(CN1C(=O)OC(C)(C)C)Nc1cc(OC)c(-c3cnco3)cc1C(=O)N2C | 948 |  |  |  | 
11 | COc1cc2c(cc1-c1cnco1)C(=O)N(C)C1(CCN(C(=O)N(C)c3ccc(F)cc3F)C1)N2 (stereo unspecified) | 51 | 1200 | 97 |  | 
12 | COc1cc2c(cc1-c1cnco1)C(=O)N(C)C1(CCN(C(=O)N(C)OC)C1)N2 (stereo unspecified) | 79 | 1900 | 38 |  | 
13 | COc1cc2c(cc1-c1cnco1)C(=O)N(C)C1(CCOCC1)N2 | 526 | 11600 |  |  | 
14 | COc1cc2c(cc1-c1cnco1)C(=O)N(C)C1(CCN(C(=O)Nc3ccccc3)C1)N2 (stereo unspecified) | 393 | 16000 | 19 |  | 
15 | COC(=O)[C@@H]1C[C@]2(CN1C(=O)OC(C)(C)C)Nc1cc(OC)c(-c3cnco3)cc1C(=O)N2C | 369 |  |  |  | 
16 | CCNC(=O)N1CCC2(C1)Nc1cc(OC)c(-c3cnco3)cc1C(=O)N2C (stereo unspecified) | 119 | 7200 | 11 |  | 
17 | COc1cc2[nH]c(=O)n(C)c(=O)c2cc1-c1cnco1 |  | 4000 |  | 3 (≈ 11 µM) | 
18 | COc1cc2c(cc1-c1cnco1)C(=O)N(C)C1(CCN(C(=O)N3CCCCC3)C1)N2 (stereo unspecified) | 68 | 1800 | 152 |  | 
19 | COc1cc2c(cc1-c1cnco1)C(=O)N(C)C(C)(C)N2 | 192 | 21000 |  | 77 (≈ 268 µM) | 
20 | COC(=O)[C@H]1C[C@@]2(CN1C(=O)OC(C)(C)C)Nc1cc(OC)c(-c3cnco3)cc1C(=O)N2C |  |  |  |  | 26
21 | COc1cc2c(cc1-c1cnco1)C(=O)N(C)C1(CCN(C(=O)N(C(C)C)C(C)C)C1)N2 (stereo unspecified) | 71 | 70 | 612 |  | 
22 | CCN(CC)C(=O)N1CCC2(C1)Nc1cc(OC)c(-c3cnco3)cc1C(=O)N2C (stereo unspecified) | 45 | 540 | 92 | 813 (≈ 1970 µM) | 
